Assay results published in ChEMBL document CHEMBL5725732, “Aglaroxin C and derivatives as HCV entry inhibitors” (2018).

Test: Cell Surface Biotinylation Assay: Huh7.5.1 cells from four 150 mm plates were treated with DMSO, Roc-A (20 nM), or infected by HCVcc. 48 h post-transfection, cells were washed three times with ice-cold PBS and resuspended in PBS at a density of 25×10^6 cells/ml. Freshly prepared Sulfo-NHS-SS-biotin (Pierce) was added to the cells (final concentration […]) and allowed to incubate at 4° C. for 30 min. Cells were then washed three times with ice-cold PBS. 25 mM Tris (pH 8.0) was added in the initial wash to quench any non-reacted biotin reagent. Following cell lysis in RIPA buffer (50 mM Tris-HCl [pH 7.5], 150 mM NaCl, 1% NP-40, 0.25% sodium deoxycholate, 1 mM EDTA, 2 mM Na3VO4 and Pierce protease inhibitor cocktail), lysates were cleared by centrifugation at 13,000×g for 15 min at 4° C. The cleared lysates were used for immunoprecipitation using a 1:1 mixture of Streptavidin beads (Pierce). Beads were washed three times with RIPA buffer, and bound proteins were eluted by boiling the samples in SDS-PAGE sample buffer and then resolved on 9% SDS-PAGE. Biotinylated proteins were detected by anti-PHB1 and anti-PHB2 antibodies.
Conditions: Huh-7.5.1

COc1ccc([C@@]23Oc4cc(OC)cc(OC)c4[C@]2(O)c2nc4n(c(=O)c2[C@H]3c2ccccc2)CCC4)cc1 (racemic)
EC50: 100 nM
